According to PubChem BioAssay (NCI):
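The compound was tested at five concentrations on cells cultured in 96-well plates, with a 48-hour exposure period. GI50: concentration for 50% inhibition of growth. TGI denotes the concentration required for complete inhibition of growth.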 The source made the active and inactive calls. No stated cut-off is given here; in the data, active means GI50 below about 0.43 µM; inactive means the rest.

Experiments:
Test in all cases: NCI tumour cell line growth inhibition, 48 h
SNB-78 CNS = test system: SNB-78 CNS
XF 498 CNS = test system: XF 498 CNS
HOP-18 NSCLC = test system: HOP-18 NSCLC
DLD-1 colon = test system: DLD-1 colon
KM20L2 colon = test system: KM20L2 colon
MDA-N = test system: MDA-N
DMS 273 small cell lung = test system: DMS 273 small cell lung
RXF-631 renal = test system: RXF-631 renal
M19-MEL melanoma = test system: M19-MEL melanoma
P388 leukemia = test system: P388 leukemia

| SMILES | TGI (SNB-78 CNS) | TGI (XF 498 CNS) | TGI (HOP-18 NSCLC) | TGI (DLD-1 colon) | TGI (KM20L2 colon) | TGI (MDA-N) | TGI (DMS 273 small cell lung) | TGI (RXF-631 renal) | TGI (M19-MEL melanoma) | further results |
| --- | --- | --- | --- | --- | --- | --- | --- | --- | --- | --- |
| COC(=O)C1(O)c2ccccc2N=C2C1CCN2C (stereo not drawn) | > 100 µM | > 100 µM | > 100 µM | > 100 µM | > 100 µM |  |  |  |  |  |
| O=c1c2cc(O)c(O)cc2oc2cc(O)c(C3OC(CO)C(O)C(O)C3O)c(O)c12 (stereo not drawn) |  |  |  |  |  | > 100 µM |  |  |  |  |
| COc1cc2c(cc1O)C1CC(CC3CCCCN31)OC(=O)/C=C\c1ccc(O)c-2c1 (stereo not drawn) |  |  |  |  |  | > 100 µM |  |  |  |  |
| CC1(C)CC(N2CCN(C3CC(C)(C)NC(C)(C)C3)CC2)CC(C)(C)N1 | > 100 µM | > 100 µM | > 100 µM | > 100 µM | > 100 µM |  | > 100 µM | > 100 µM |  |  |
| CCCCCCSc1nc(COC(=O)NC)c(COC(=O)NC)n1C |  |  |  |  |  | > 100 µM |  |  |  |  |
| COC(=O)C1=C(\O)C[C@@]2(C)CC[C@@H](C(=O)OC)C2C/C=C\1C(=O)OC (stereo partly drawn) | > 100 µM |  | > 100 µM | > 100 µM | > 100 µM |  | > 100 µM | > 100 µM | > 100 µM |  |
| COC(=O)C1(C)CCCC2(C)c3cc(OC)ccc3C(=O)C(Br)C12 (stereo not drawn) |  |  |  |  |  | > 10 µM |  |  |  |  |
| CCCCCCCCCCCC(=O)OC(COC(N)=O)COc1ccc(Cl)cc1 (stereo not drawn) | 84.8 µM | 45.8 µM | 95.7 µM | > 100 µM | > 100 µM |  | 40.9 µM | 67.7 µM | 32.9 µM |  |
| Cc1ccc(NC(=O)C(=O)CC(=O)c2ccccc2)cc1C | > 100 µM | > 100 µM | > 100 µM | > 100 µM | > 100 µM |  | > 100 µM |  | > 100 µM |  |
| CC[C@@]1(O)C(=O)NCc2c1cc1n(c2=O)Cc2cc3c(NC(C)=O)cccc3nc2-1 |  |  |  |  |  | > 100 µM |  |  |  | GI50 (MDA-N): > 100 µM |
| COC(=O)NC(=O)c1cn(C2CCCCC2)c(=O)[nH]c1=O | > 100 µM |  | > 100 µM | > 100 µM | > 100 µM |  | > 100 µM |  | > 100 µM |  |
| O=C(/C=C/c1ccccc1)OCC1=C[C@@H](O)[C@@H]2C=CO[C@@H](OC3OC(CO)C(O)C(O)C3O)[C@H]12 (stereo partly drawn) |  |  |  |  |  | > 100 µM |  |  |  |  |
| N#CC1C(=O)NC(=O)C1=O (stereo not drawn) | > 100 µM | > 100 µM | > 100 µM |  | > 100 µM |  | > 100 µM | > 100 µM | > 100 µM |  |
| O=C(/C=C/c1ccc(O)cc1)c1cc(Cl)ccc1O | > 100 µM | 85 µM | > 100 µM | > 100 µM | > 100 µM |  |  |  | > 100 µM |  |
| O=C1c2ccccc2C(=O)c2c1ccc1c2N=C(c2ccc(Br)cc2)CC(c2cccc3ccccc23)N1 (stereo not drawn) | > 100 µM | > 100 µM | > 100 µM | > 100 µM | > 100 µM |  | > 100 µM | > 100 µM |  |  |
| O=C(O)COc1ccc(C(=O)/C(SS/C(C(=O)c2ccc(OCC(=O)O)c(Cl)c2Cl)=C2\C=C(c3ccccc3Cl)SS2)=C2/C=C(c3ccccc3Cl)SS2)c(Cl)c1Cl | 52.5 µM | 50.4 µM | > 72.4 µM | > 65.4 µM | > 100 µM |  | 56.9 µM | > 84.9 µM | > 66.6 µM |  |
| C=C1C(=O)C2(C)OC2(C)C1C(=O)O (stereo not drawn) |  |  |  |  |  | > 100 µM |  |  |  |  |
| CCCCC(C(=O)CCC(=O)Nc1ccc(Cl)cc1)C(=O)C(C)C (stereo not drawn) | > 100 µM | > 100 µM |  | > 100 µM | > 100 µM |  | > 100 µM | > 100 µM | > 100 µM |  |
| Nc1ccc(C(=O)Nc2ccccc2N)cc1 | > 100 µM | > 100 µM | > 100 µM | > 100 µM |  | > 100 µM | > 100 µM | > 100 µM | > 100 µM |  |

| SMILES | TGI (SNB-78 CNS) | TGI (XF 498 CNS) | TGI (HOP-18 NSCLC) | TGI (DLD-1 colon) | TGI (KM20L2 colon) | TGI (MDA-N) | TGI (DMS 273 small cell lung) | TGI (RXF-631 renal) | TGI (M19-MEL melanoma) | further results |
| --- | --- | --- | --- | --- | --- | --- | --- | --- | --- | --- |
| Cn1cnc([N+](=O)[O-])c1Sc1nc2ccc([N+](=O)[O-])cc2[nH]1 | 81 µM | 28.9 µM | > 100 µM | 32.6 µM | > 100 µM |  | 4.68 µM |  | 44.5 µM |  |
| CC(C)COC(c1ccc2c(c1)OCO2)C(C)Br (stereo not drawn) |  |  |  |  |  | 53.8 µM |  |  |  |  |
| COc1ccc(/C=C2\CCC(Cc3ccccc3)(CN(C)C)C2=O)cc1 (stereo not drawn) | > 100 µM |  | > 100 µM | > 100 µM | 59.6 µM | > 100 µM | 32.5 µM |  | 70.7 µM |  |
| NC(=O)c1ncn(Cc2ccccc2)c1CNC(N)=S | > 100 µM | > 100 µM | > 100 µM | > 100 µM |  |  | > 100 µM | > 100 µM | > 100 µM |  |
| O=C1CC[C@@H](NC(=O)Cc2ccccc2)C(=O)N1 |  | > 100 µM | > 100 µM | > 100 µM | > 100 µM |  | > 100 µM |  | > 100 µM |  |
| Nc1nc2ncn(CC(O)COC(=O)c3ccccc3)c2c(=O)[nH]1 (stereo not drawn) | > 100 µM | > 100 µM | > 100 µM | > 100 µM | > 100 µM |  | > 100 µM | > 100 µM | > 100 µM |  |
| COc1cc(/C=C/c2ccccn2)cc(OC)c1OC |  |  |  |  |  | > 10 µM |  |  |  |  |
| ClCCCCOC1CCCCO1 (stereo not drawn) | > 100 µM | > 100 µM | > 100 µM | > 100 µM | > 100 µM |  | > 100 µM |  | > 100 µM |  |
| c1ccc2c(c1)N=C(c1ccc3ccccc3c1)CC(c1cccc3ccccc13)S2 (stereo not drawn) |  | > 100 µM | > 100 µM | > 100 µM | > 100 µM |  | > 100 µM | > 100 µM | > 100 µM |  |
| O=c1[nH]c(SCc2ccccc2[N+](=O)[O-])nc2nc[nH]c12 |  |  |  |  |  | > 100 µM |  |  |  |  |
| N#Cc1cn(-c2c3ccccc3nc3ccccc23)c(=O)[nH]c1=O | 49.8 µM | 25.2 µM |  | > 100 µM | 32.2 µM |  |  |  | 46.1 µM |  |
| CC1CC(c2ccc(Cl)c(Cl)c2)=Nc2ccccc2S1 (stereo not drawn) | > 100 µM | > 100 µM | > 100 µM | > 100 µM | > 100 µM |  | > 100 µM |  | > 100 µM |  |
| Cc1ccc2nc3c(C)cc(=O)cc-3sc2c1 | > 100 µM |  | > 100 µM | > 100 µM | > 100 µM |  | > 100 µM | > 100 µM | 31 µM |  |
| CC12CC(=O)C3C(CCC4=CC(=O)CCC43C)C1CC=C2CC(=O)O (stereo not drawn) |  |  |  |  |  | > 100 µM |  |  |  |  |
| NCC1(N2CCOCC2)C2CCCC21CNc1ccccc1 (stereo not drawn) | > 100 µM | > 100 µM | > 100 µM | > 100 µM |  |  | > 100 µM | > 100 µM | > 100 µM |  |
| CN1CCc2cc3c4cc2C1Cc1ccc(cc1)Oc1cc(ccc1O)CC1c2c(cc(O)c(c2O4)O3)CCN1C (stereo not drawn) | 21.3 µM |  | 18.5 µM | 14.8 µM | 10.3 µM |  | 3.84 µM | 7.92 µM | 3.35 µM |  |
| O=C(NC1C(=O)NNC1c1ccccc1Cl)c1ccccc1 (stereo not drawn) |  | > 100 µM | > 100 µM | > 100 µM | > 100 µM |  | > 100 µM |  | > 100 µM |  |
| CCc1ccc([O-])c(C=NCCCN(C)CCCN=Cc2cc(C)ccc2[O-])c1.[Co+3].[N-]=[N+]=[N-] | > 150 µg/mL |  |  | > 150 µg/mL |  | 50 µg/mL | > 150 µg/mL |  | > 150 µg/mL | GI50 (SNB-78 CNS): > 150 µg/mL; outcome (XF 498 CNS): inactive; outcome (HOP-18 NSCLC): inactive; GI50 (MDA-N): 50 µg/mL; GI50 (DMS 273 small cell lung): 34.7 µg/mL; GI50 (DLD-1 colon): 61 µg/mL; GI50 (P388 leukemia): 145 µg/mL; TGI (P388 leukemia): > 150 µg/mL; outcome (KM20L2 colon): inactive; GI50 (M19-MEL melanoma): > 150 µg/mL |
